Source: ChEMBL document CHEMBL3301361, “Experimental in vitro DMPK and physicochemical data on a set of publicly disclosed compounds”
Converted amounts (≈) assume the structure as drawn.

Key:
physchem [1] = conditions: octan-1-ol/water
physchem [2] = conditions: pH 7.4 buffer

Molecule `c1ccc(Nc2ccccc2)cc1` [DIPHENYLAMINE] has a logD (physchem [1]; pH 7.4, LogD7.4) of 3.2 and a solubility thermodynamic (physchem [2]) of 178 µM (≈ 30.1 µg/mL).

`COc1cc2c(NC(=O)Nc3c(Cl)cccc3Cl)ncnc2cc1OCC1CCN(C)CC1` showed a logD (physchem [1]; pH 7.4, LogD7.4) of 2.7 and a solubility thermodynamic (physchem [2]) of 10 µM (≈ 4.9 µg/mL).

For `CCn1c2ccccc2c2cc(NC(=O)N3CCOCC3)ccc21`, the logD (physchem [1]; pH 7.4, LogD7.4) was 3.2 and the solubility thermodynamic (physchem [2]) was 2.9 µM (≈ 0.938 µg/mL).

With `CC1(c2nc(N3CCOCC3)ncc2C(=O)N[C@H]2C3CC4CC2C[C@](O)(C4)C3)CC1` the logD (physchem [1]; pH 7.4, LogD7.4) was 2 and the solubility thermodynamic (physchem [2]) was 407 µM (≈ 168 µg/mL).

With `O=C(Nc1ccc(Oc2cccnc2)nc1)c1nnc(Nc2ccccc2F)o1` the logD (physchem [1]; pH 7.4, LogD7.4) was 3.1 and the solubility thermodynamic (physchem [2]) was 77.6 µM (≈ 30.4 µg/mL).

`CN1CCN(c2ccc(NC(=O)c3nnc(Nc4ccccc4F)o3)cn2)CC1` showed a logD (physchem [1]; pH 7.4, LogD7.4) of 2.36 and a solubility thermodynamic (physchem [2]) of 91.2 µM (≈ 36.2 µg/mL).

`COc1ccnc(N(C)c2ccnc(Nc3cc(N4CCOCC4)cc(N4CCOCC4)c3)n2)c1` gave a logD (physchem [1]; pH 7.4, LogD7.4) of 2.23 and a solubility thermodynamic (physchem [2]) of 51.3 µM (≈ 24.5 µg/mL).

`CS(=O)(=O)Cc1cc(N2CCOCC2)nc(-c2cccc3cc[nH]c23)n1` gave a logD (physchem [1]; pH 7.4, LogD7.4) of 2.8 and a solubility thermodynamic (physchem [2]) of 1.1 µM (≈ 0.41 µg/mL).

Work on `Cc1cc(S(=O)(=O)Nc2nc(Nc3ccc(Cl)cc3)n[nH]2)c(S)cc1Cl` yielded a logD (physchem [1]; pH 7.4, LogD7.4) of 2.09 and a solubility thermodynamic (physchem [2]) of 87.1 µM (≈ 37.5 µg/mL).

Molecule `COc1ccc(C(=O)CS(=O)(=O)c2ccccc2)cc1` has a logD (physchem [1]; pH 7.4, LogD7.4) of 1.96 and a solubility thermodynamic (physchem [2]) of 53.7 µM (≈ 15.6 µg/mL).

`Cn1cnc(-c2ccccc2)c1C#Cc1ccnc(N)n1` showed a logD (physchem [1]; pH 7.4, LogD7.4) of 2.94 and a solubility thermodynamic (physchem [2]) of 17 µM (≈ 4.68 µg/mL).

In the case of `COc1cc2ncnc(Nc3cc(NC(=O)c4cccc(N5CCOCC5)c4)ccc3C)c2cc1OC`, the logD (physchem [1]; pH 7.4, LogD7.4) is reported as 3.6 and the solubility thermodynamic (physchem [2]) is reported as 14.5 µM (≈ 7.24 µg/mL).

For `Nc1ncnc2c1ncn2Cc1ccccc1` [9-BENZYL-9H-ADENINE], the logD (physchem [1]; pH 7.4, LogD7.4) was 1.53 and the solubility thermodynamic (physchem [2]) was 246 µM (≈ 55.3 µg/mL).

Molecule `CCCCn1c(Cc2cc(OC)c(OC)c(OC)c2)nc2c(N)ncnc21` has a logD (physchem [1]; pH 7.4, LogD7.4) of 2.39 and a solubility thermodynamic (physchem [2]) of 85.1 µM (≈ 31.6 µg/mL).

For `O=C1CN(C(=O)c2ccco2)c2ccccc2N1`, the logD (physchem [1]; pH 7.4, LogD7.4) was 1.21 and the solubility thermodynamic (physchem [2]) was 269 µM (≈ 65.2 µg/mL).

For `CCc1cc(OCc2ccc(-c3ccccc3-c3nnn[nH]3)cc2)c2c(n1)CCCC2`, the logD (physchem [1]; pH 7.4, LogD7.4) was 1.7 and the solubility thermodynamic (physchem [2]) was 23.4 µM (≈ 9.63 µg/mL).

In the case of `CC(=O)Nc1nc(-c2cccs2)cs1`, the logD (physchem [1]; pH 7.4) is reported as 2.77 and the solubility thermodynamic (physchem [2]) is reported as 100 µM (≈ 22.4 µg/mL).

`Nc1ncnc(Nc2ccccc2)n1` [AMANOZINE] showed a logD (physchem [1]; pH 7.4, LogD7.4) of 1.4 and a solubility thermodynamic (physchem [2]) of 246 µM (≈ 46 µg/mL).

`Nc1ncc(-c2cnn(C3CCN(C(=O)CO)CC3)c2)cc1-c1nc2ccccc2o1` showed a logD (physchem [1]; pH 7.4, LogD7.4) of 3.2 and a solubility thermodynamic (physchem [2]) of 2 µM (≈ 0.837 µg/mL).

Molecule `O=S(=O)(Nc1ccc(S(=O)(=O)Nc2nccs2)cc1)c1ccc2c(c1)OCCO2` has a logD (physchem [1]; pH 7.4, LogD7.4) of 1.97 and a solubility thermodynamic (physchem [2]) of 0.7 µM (≈ 0.317 µg/mL).

Molecule `NC(=O)c1c(OCc2c(F)cc(Br)cc2F)nsc1NC(=O)NCCCCN1CCCC1` [OSI-632] has a logD (physchem [1]; pH 7.4, LogD7.4) of 2.5 and a solubility thermodynamic (physchem [2]) of 77.6 µM (≈ 41.3 µg/mL).

`OCCNCc1cc(Br)ccc1OCc1ccc(Cl)cc1` showed a logD (physchem [1]; pH 7.4, LogD7.4) of 2.98 and a solubility thermodynamic (physchem [2]) of 229 µM (≈ 84.9 µg/mL).

In the case of `O=c1[nH]c2cc(Cl)ccc2c(O)c1-c1cccc(Oc2ccccc2)c1`, the logD (physchem [1]; pH 7.4, LogD7.4) is reported as 2.96 and the solubility thermodynamic (physchem [2]) is reported as 2.5 µM (≈ 0.909 µg/mL).

With `COc1cc2c(Nc3ccc(Cl)cc3F)ncnc2cc1OCCCN1CCOCC1` the logD (physchem [1]; pH 7.4, LogD7.4) was 3.4 and the solubility thermodynamic (physchem [2]) was 21.9 µM (≈ 9.79 µg/mL).

Work on `CCn1c(=O)ccc2cc(COc3cc(F)cc(C4(OC)CCOCC4)c3)ccc21` yielded a logD (physchem [1]; pH 7.4, LogD7.4) of 3.89 and a solubility thermodynamic (physchem [2]) of 1.7 µM (≈ 0.7 µg/mL).

Molecule `Cc1ncc(-c2ccnc(Nc3ccccc3)n2)n1C(C)C` has a logD (physchem [1]; pH 7.4, LogD7.4) of 3.58 and a solubility thermodynamic (physchem [2]) of 35.5 µM (≈ 10.4 µg/mL).

`Cc1nc(C)c(-c2ccc(C34CCC(CC(=O)O)(CC3)CC4)cc2)nc1C(N)=O` showed a logD (physchem [1]; pH 7.4, LogD7.4) of 1.6 and a solubility thermodynamic (physchem [2]) of 112 µM (≈ 44.1 µg/mL).

`Cc1nc(C)c(-c2ccc([C@H]3CC[C@H](CC(=O)O)CC3)c(Cl)c2)nc1C(N)=O` gave a logD (physchem [1]; pH 7.4, LogD7.4) of 1.8 and a solubility thermodynamic (physchem [2]) of 209 µM (≈ 84 µg/mL).

`CCS(=O)(=O)c1ccc(Oc2cc3nc(-c4ccccn4)[nH]c3cc2CN2C(=O)CCC2=O)cc1` gave a logD (physchem [1]; pH 7.4, LogD7.4) of 2 and a solubility thermodynamic (physchem [2]) of 30.2 µM (≈ 14.8 µg/mL).

For `CS(=O)(=O)c1cccc(Nc2nccc(Nc3cccc4c3OCO4)n2)c1`, the logD (physchem [1]; pH 7.4, LogD7.4) was 2.83 and the solubility thermodynamic (physchem [2]) was 5.9 µM (≈ 2.27 µg/mL).

With `FC(F)(F)c1nnc2ccc(NCn3nnc4ccccc43)nn12` the logD (physchem [1]; pH 7.4, LogD7.4) was 2.34 and the solubility thermodynamic (physchem [2]) was 18.2 µM (≈ 6.08 µg/mL).

Work on `CNc1cccc(CCCc2ccc(C[C@H](NC(=O)c3c(Cl)cccc3Cl)C(=O)O)s2)n1` yielded a logD (physchem [1]; pH 7.4, LogD7.4) of 0.78 and a solubility thermodynamic (physchem [2]) of 331 µM (≈ 163 µg/mL).

For `Cn1c(C#N)ccc1-c1cc(F)c2c(c1)C(C)(C)C(=O)N2`, the logD (physchem [1]; pH 7.4, LogD7.4) was 3.21 and the solubility thermodynamic (physchem [2]) was 5.4 µM (≈ 1.53 µg/mL).

Work on `C[C@H](NC1=NC(=O)[C@@](C)(C(F)(F)F)S1)c1ccccc1F` yielded a logD (physchem [1]; pH 7.4, LogD7.4) of 3.1 and a solubility thermodynamic (physchem [2]) of 219 µM (≈ 70.1 µg/mL).

`CCN(CCN(C)C)S(=O)(=O)c1ccc(-c2cnc(N)c(C(=O)Nc3cccnc3)n2)cc1` gave a logD (physchem [1]; pH 7.4, LogD7.4) of 2 and a solubility thermodynamic (physchem [2]) of 490 µM (≈ 230 µg/mL).

Molecule `COc1ccc(NC(=O)c2nnc(Nc3ccccc3F)o2)cn1` has a logD (physchem [1]; pH 7.4, LogD7.4) of 3.2 and a solubility thermodynamic (physchem [2]) of 3.3 µM (≈ 1.09 µg/mL).

For `CCCc1c(O)c(O)c(C(=O)O)c2cc(Cc3ccccc3)c(C)cc12`, the logD (physchem [1]; pH 7.4, LogD7.4) was 2.6 and the solubility thermodynamic (physchem [2]) was 204 µM (≈ 71.6 µg/mL).

For `CS(=O)(=O)c1ccc2[nH]c3c(c2c1)CN(C(=O)[C@@H]1CCCC[C@H]1C(=O)NC1(C#N)CC1)CC3`, the logD (physchem [1]; pH 7.4, LogD7.4) was 1.5 and the solubility thermodynamic (physchem [2]) was 190 µM (≈ 89.3 µg/mL).

Work on `CC(C)(C(=O)Nc1nnc(C(=O)Nc2ccc(N3CCOCC3)cc2)o1)c1ccc(Cl)cc1` yielded a logD (physchem [1]; pH 7.4, LogD7.4) of 2.96 and a solubility thermodynamic (physchem [2]) of 200 µM (≈ 93.8 µg/mL).

In the case of `c1cc(Nc2ccnc(Nc3cc(N4CCOCC4)cc(N4CCOCC4)c3)n2)c2cn[nH]c2c1`, the logD (physchem [1]; pH 7.4, LogD7.4) is reported as 3.05 and the solubility thermodynamic (physchem [2]) is reported as 2.5 µM (≈ 1.18 µg/mL).

For `CNC(=O)c1ccccc1Sc1ccc2c(/C=C/c3ccccn3)n[nH]c2c1` [AXITINIB], the logD (physchem [1]; pH 7.4, LogD7.4) was 3.8 and the solubility thermodynamic (physchem [2]) was 0.5 µM (≈ 0.193 µg/mL).

`Cc1ccc(NC(=O)c2ccoc2)cc1-n1cnc2ccc(N3CCN(C)CC3)cc2c1=O` showed a logD (physchem [1]; pH 7.4, LogD7.4) of 2.43 and a solubility thermodynamic (physchem [2]) of 1290 µM (≈ 571 µg/mL).

In the case of `CC1CCc2cc(F)cc3c(=O)c(C(=O)O)cn1c23` (configuration not stated) [FLUMEQUINE], the logD (physchem [1]; pH 7.4) is reported as 0.74 and the solubility thermodynamic (physchem [2]) is reported as 776 µM (≈ 203 µg/mL).

In the case of `Nc1ncc(-c2cnn(C3CCNCC3)c2)cc1-c1nc2ccccc2o1`, the logD (physchem [1]; pH 7.4, LogD7.4) is reported as 1.85 and the solubility thermodynamic (physchem [2]) is reported as 2.3 µM (≈ 0.829 µg/mL).

Molecule `Clc1ccc2c(c1Nc1ccnc(Nc3cc(N4CCOCC4)cc(N4CCOCC4)c3)n1)OCO2` has a logD (physchem [1]; pH 7.4, LogD7.4) of 3.25 and a solubility thermodynamic (physchem [2]) of 30.9 µM (≈ 15.8 µg/mL).

Work on `Nc1nccc(-c2c[nH]c3ccccc23)n1` yielded a logD (physchem [1]; pH 7.4, LogD7.4) of 1.68 and a solubility thermodynamic (physchem [2]) of 575 µM (≈ 121 µg/mL).

Molecule `COc1ccc(Cn2cc3c(=O)n(C)c(=O)n(CC(C)C)c3c2)cc1` has a logD (physchem [1]; pH 7.4, LogD7.4) of 3.52 and a solubility thermodynamic (physchem [2]) of 17 µM (≈ 5.8 µg/mL).

Molecule `CN(C)CC(O)COc1ccc(Nc2nccc(Nc3ccccc3C#N)n2)cc1` (configuration not stated) has a logD (physchem [1]; pH 7.4, LogD7.4) of 1.2 and a solubility thermodynamic (physchem [2]) of 1100 µM (≈ 444 µg/mL).

With `CCc1[nH]nc(NC(=O)Cc2ncc(Oc3ccnc4cc(OC)c(OC)cc34)cc2OC)c1C` the logD (physchem [1]; pH 7.4, LogD7.4) was 2.79 and the solubility thermodynamic (physchem [2]) was 37.2 µM (≈ 17.8 µg/mL).

Work on `CC(C)N1CCO[C@@H](CN2CCN(C(=O)Nc3ccc(Cl)c(Cl)c3)CC2)C1` yielded a logD (physchem [1]; pH 7.4, LogD7.4) of 2.77 and a solubility thermodynamic (physchem [2]) of 1120 µM (≈ 466 µg/mL).

With `Cc1ncc(-c2ccnc(Nc3ccc(S(=O)(=O)CCCN4CCOCC4)cc3)n2)n1C(C)C` the logD (physchem [1]; pH 7.4, LogD7.4) was 2.43 and the solubility thermodynamic (physchem [2]) was 851 µM (≈ 412 µg/mL).

In the case of `COc1cc2ncnc(Oc3cnn(CC(=O)Nc4ccc(N(C)C)cn4)c3)c2cc1OC`, the logD (physchem [1]; pH 7.4, LogD7.4) is reported as 2.36 and the solubility thermodynamic (physchem [2]) is reported as 6.6 µM (≈ 2.97 µg/mL).

For `FC(F)c1nc2ccccc2n1-c1nc(N2CCOCC2)nc(N2CCOCC2)n1` [ZSTK-474], the logD (physchem [1]; pH 7.4, LogD7.4) was 3.04 and the solubility thermodynamic (physchem [2]) was 0.7 µM (≈ 0.292 µg/mL).

Work on `O=C(Nc1cccc(O)c1)c1ccc(OCCCN2CCCC2)cc1OCc1ccccc1` yielded a logD (physchem [1]; pH 7.4, LogD7.4) of 3.07 and a solubility thermodynamic (physchem [2]) of 6.6 µM (≈ 2.95 µg/mL).

In the case of `COc1cc(C(=O)NS(=O)(=O)c2ccccc2)ccc1Cn1ncc2ccc(NC(=O)CC3CCCC3)cc21`, the logD (physchem [1]; pH 7.4, LogD7.4) is reported as 1.6 and the solubility thermodynamic (physchem [2]) is reported as 251 µM (≈ 137 µg/mL).

Molecule `O=S(=O)(Cc1c(F)cccc1F)N1CCN(c2ncccc2C(F)(F)F)CC1` has a logD (physchem [1]; pH 7.4, LogD7.4) of 3.9 and a solubility thermodynamic (physchem [2]) of 2 µM (≈ 0.843 µg/mL).
